The data set is described as follows: Adverse effects after nebulization in mice. The following applies: mouse, in vivo. In kind it is in vivo, C57BL/6 mice. As to the method: Drug Nebulization. C57BL/6 mice (n=8) were first exposed to 5 mL DMSO for 10 minutes to determine any adverse effects that may occur from using DMSO. Mice (n=16) were then exposed to TOB in 0.225% saline or RFX in DMSO via nebulization until the 5 mL drug mixture was depleted—typically 10-15 minutes. Nebulization was conducted using the pressure-based nebulizer and chamber purchased from Kent Scientific (Torrington, Conn.). TOB was nebulized at concentrations of 100 mg (n=4) or 400 mg (n=4) in 5 mL of 0.225% saline. RFX was nebulized at concentrations of 100 mg (n=4) or 400 mg (n=4) in 5 ml of 100% dimethyl sulfoxide. Mice were sacrificed immediately after nebulization via CO2 chamber. Lungs were then collected and homogenized. TOB concentrations were measured using ELISA. RFX concentrations were measured via HPLC.
The potential adverse effects of using DMSO were first assessed by nebulizing DMSO alone to a group of C57BL/6 mice (n=8). This type of mice was used due to their natural resistance against infection based on our previous studies. […] To determine the dosage of each drug received by the mice, the lungs were homogenized and drug concentrations of TOB and RFX were determined via ELISA and HPLC, respectively. […] The droplet size for both TOB and RFX were determined to be identical with the average droplet size for TOB and RFX being 5.07 μm and 5.02 μm, respectively. […]

The results in this text go back to patent US10993935B2, “Compositions and methods for treatment of lung infections” (priority 2018, dated 2021).

For `CO[C@H]1/C=C/O[C@@]2(C)Oc3c(C)c(O)c4c(O)c(c5c(nc6cc(C)ccn65)c4c3C2=O)NC(=O)/C(C)=C\C=C\[C@H](C)[C@H](O)[C@@H](C)[C@@H](O)[C@@H](C)[C@H](OC(C)=O)[C@@H]1C` [RFX, rifaximin], the adverse effects entry is on record as “no adverse effects”.
